# Reference: patent US10633348B2, “Methods to treat lymphoplasmacytic lymphoma” (Dana-Farber Cancer Institute, Inc., priority 2013, dated 2020)
# Legend:
# Assay type in all cases: cell-based
# Mec1 = test: CellTiter-Glo cell viability assay; settings: Homo sapiens, 72 hours
# OCI-Ly3 = test: CellTiter-Glo cell viability assay; settings: Homo sapiens, OCI-Ly3, 72 h
# BARK1 = tested on: BARK1
# CaMK1a = tested on: CaMK1a
# CAMKK2 = tested on: CAMKK2
# CDC2 = tested on: CDC2
# CDK11, CDK8 = test: KiNativ kinase profiling in A375 cells; settings: Lys2, SEQ ID NO 20, 1.0 μM
# CHK1 = tested on: CHK1
# CK1a = tested on: CK1a
# DGKQ = tested on: DGKQ
# FER = tested on: FER
# FRAP = tested on: FRAP
# FRK = tested on: FRK
# IKKe = tested on: IKKe
# JNK1, JNK2, JNK3 = test: KiNativ kinase profiling in A375 cells; settings: Lys2, SEQ ID NO 67, 1.0 μM
# LCK = tested on: LCK
# MAP2K1, MAP2K2 = test: KiNativ kinase profiling in A375 cells; settings: Lys2, SEQ ID NO 79, 1.0 μM
# MARK3 = tested on: MARK3
# MAST1, MAST2 = test: KiNativ kinase profiling in A375 cells; settings: Lys2, SEQ ID NO 96, 1.0 μM
# MAST3 = tested on: MAST3
# MET = tested on: MET
# NEK4 = tested on: NEK4
# NEK6, NEK7 = test: KiNativ kinase profiling in A375 cells; settings: Lys2, SEQ ID NO 122, 1.0 μM
# p38b = tested on: p38b
# p70S6K = tested on: p70S6K
# PAN3 = tested on: PAN3
# PIK3C3 = tested on: PIK3C3
# PIK3CB = tested on: PIK3CB
# PIK3CG = tested on: PIK3CG
# PIP4K2C = tested on: PIP4K2C
# [1] = tested on: RSK1 domain1, RSK2 domain1, RSK3 domain1; test: KiNativ kinase profiling in A375 cells; settings: Lys2, SEQ ID NO 165, 1.0 μM
# RSKL1 = tested on: RSKL1
# SLK = tested on: SLK
# STK33 = tested on: STK33
# STLK5 = tested on: STLK5
# TLK1 = tested on: TLK1
# VRK2 = tested on: VRK2
# WEE1 = tested on: WEE1
# OCI-Ly7 = test: CellTiter-Glo cell viability assay; settings: Homo sapiens, 72 hours
# TMD8 = test: CellTiter-Glo cell viability assay; settings: Homo sapiens, 72 hours
# BTK-pY223 = test: PhosFlow; settings: BCWM.1, Hck-wt and Hck-mu BCWM.1 cells; 0.5 μM and 0.1 μM
# Description: PhosFlow was performed to detect levels of phosphorylation for BTK-pY223 (BD Biosciences) and Hck-pY410 (Abcam) in BCWM.1 cells, in BCWM cells that stably overexpress HCK (BCWM.1_HCK-wt) and in BCWM.1 cells that stably overexpress the T338M mutant of HCK (BCWM.1_HCK-mu). Cells were fixed with BD Phosflow Fix Buffer I (BD Biosciences) at 37° C. for 10 min, then washed twice with BD Phosflow Perm/Wash Buffer I (BD Biosciences). Cells were suspended in BD Phosflow Perm/Wash Buffer I at 10 million/ml and antibodies aliquoted to flow tubes with 100 μl cells. Cells were incubated at room temperature for 30 min in the dark. Cells were washed twice with BD Phosflow Perm/Wash Buffer I before performing flow analysis using a BD™ FACSCanto II flow cytometer.
smiles,measurement,setting,value
"CCN1CCN(Cc2ccc(NC(=O)c3ccc(C)c(Oc4cc(N)ncn4)c3)cc2C(F)(F)F)CC1 [(A-4), 3-((6-aminopyrimidin-4-yl)oxy)-N-(4-((4-ethylpiperazin-1-yl)methyl)-3-(trifluoromethyl)phenyl)-4-methylbenzamide]",EC50,Mec1,14.3 µM
same,EC50,OCI-Ly3,31.9 µM
same,inhibition of kinase labeling,BARK1,−13.4%
same,inhibition of kinase labeling,CaMK1a,12.4%
same,inhibition of kinase labeling,CAMKK2,6.2%
same,inhibition of kinase labeling,CDC2,−2.3%
same,inhibition of kinase labeling,"CDK11, CDK8",50.0%
same,inhibition of kinase labeling,CHK1,−5.0%
same,inhibition of kinase labeling,CK1a,−0.6%
same,inhibition of kinase labeling,DGKQ,11.0%
same,inhibition of kinase labeling,FER,91.4%
same,inhibition of kinase labeling,FRAP,−7.5%
same,inhibition of kinase labeling,FRK,91.1%
same,inhibition of kinase labeling,IKKe,−9.9%
same,inhibition of kinase labeling,"JNK1, JNK2, JNK3",77.2%
same,inhibition of kinase labeling,LCK,92.3%
same,inhibition of kinase labeling,"MAP2K1, MAP2K2",−16.3%
same,inhibition of kinase labeling,MARK3,−26.1%
same,inhibition of kinase labeling,"MAST1, MAST2",35.6%
same,inhibition of kinase labeling,MAST3,−8.1%
same,inhibition of kinase labeling,MET,−21.0%
same,inhibition of kinase labeling,NEK4,1.5%
same,inhibition of kinase labeling,"NEK6, NEK7",−12.5%
same,inhibition of kinase labeling,p38b,51.4%
same,inhibition of kinase labeling,p70S6K,−2.3%
same,inhibition of kinase labeling,PAN3,12.1%
same,inhibition of kinase labeling,PIK3C3,−5.1%
same,inhibition of kinase labeling,PIK3CB,27.8%
same,inhibition of kinase labeling,PIK3CG,−21.1%
same,inhibition of kinase labeling,PIP4K2C,5.2%
same,inhibition of kinase labeling,[1],−17.7%
same,inhibition of kinase labeling,RSKL1,31.5%
same,inhibition of kinase labeling,SLK,−14.3%
same,inhibition of kinase labeling,STK33,12.9%
same,inhibition of kinase labeling,STLK5,5.0%
same,inhibition of kinase labeling,TLK1,4.9%
same,inhibition of kinase labeling,VRK2,27.9%
same,inhibition of kinase labeling,WEE1,23.2%
"CCN1CCN(Cc2ccc(NC(=O)c3ccc(C)c(Oc4ccnc(Nc5cnn(C)c5)n4)c3)cc2C(F)(F)F)CC1 [(A-14), N-(4-((4-ethylpiperazin-1-yl)methyl)-3-(trifluoromethyl)phenyl)-4-methyl-3-((2-((1-methyl-1H-pyrazol-4-yl)amino)pyrimidin-4-yl)oxy)benzamide]",EC50,OCI-Ly7,173 nM
same,EC50,TMD8,45 nM
same,BTK phosphorylation,BTK-pY223,inhibit
